In patent publication US20250268938A1, “SMALL MOLECULE-REGULATED CELL SIGNALING EXPRESSION SYSTEM” (Outpace Bio, Inc., priority 2021, published 2025):

How the values were obtained:
danoprevir/NS3a complex = conditions: cited from earlier work
Jurkat cells = test: Kill switch percent killing in Jurkat cells (flow cytometry); assay type: cell-based; conditions: Jurkat cells; 10 nM rimiducid; range of transduction levels
Method: Kill switch-positive cells (le5) were incubated for 24-48 hours with inducer drug before staining and analysis for death. Conditions were normalized to contain about 50% transduction positive (+) cells by adding untransduced Jurkat or primary T cells in order to get accurate statistics on death.
Flow cytometry was performed on a Ze5 cytometer (Biorad). To determine expression of markers, between 1×10^5-2×10^5 total cells were transferred to a U-bottom 96 well culture dish (Corning). Cells were washed twice with Cell Staining Buffer (BioLegend), then stained with Zombie Violet (1:1000, BioLegend) and ROR1-FC for ROR1-specific CAR constructs (20 min at room temperature). Cells were washed twice in Cell Staining Buffer, then stained with Annexin V-PE (BD) in 1× Annexin V Binding Buffer (BD) for 15 min at room temperature. After staining, cells were washed once with Annexin V Binding Buffer, resuspended in AnneinV Binding Buffer and immediately analyzed.
(§1) Flow cytometry data was analyzed using FlowJo 10 (Tree Star). Percent killing was calculated by gating on live cells, then calculating 100*((percent GFP positive DMSO condition)−(percent GFP positive drug condition))/(percent GFP positive DMSO condition).
We first tested for drug-induced death of Jurkat cells by fusing NS3a and DNCR2 separately to the catalytic domain of caspase-9 (NCDC). The small molecule inducible homodimer FKBP-F36V (iCasp9), which is dimerized by AP1903 (rimiducid) and the inducible heterodimer FKBP/rapamycin/FRB dimer (rapaCasp9) were used as controls. Briefly, Jurkat cells expressing NCDC, iCasp9, or rapaCasp9 were exposed to danoprevir, rimiducid or rapamycin, respectively, for 24 hours and analyzed by flow cytometry with gating set to measure killing in the top about 10% of cells expressing the highest amount of the GFP kill switch transduction marker.
To evaluate the kill switch designs of FIG. 8A, constructs were expressed in Jurkat cells, treated with 500 nM danoprevir (DNCR2-casp-9) or 500 nM grazoprevir (GNCR1-casp-9) and cell death measured by percent killing as described herein above.
The miniaturized versions of DNCR2, D1 and D9, were fused to caspase-9 and co-expressed in Jurkat cells with homo-oligomerized NS3a scaffolds. We also evaluated a CAR construct that included an additional copy of NS3a (CAR-2×NS3a). The original DNCR2-casp-9 was used as a control. Jurkat cells expressing different DNCR2 variants fused to caspase-9 along with CAR-NS3a, CAR-NS3a-NS3a, or dimer-NS3a were treated with 500 nM danoprevir and cell death was measured by percent killing as described herein above.
(§2) We explored the ability of other human killing domains to induce cell death in Jurkat and primary human T cells. We fused FKBP-F36V to a panel of killing domains that included caspase-9 D330A, caspase-9, caspase-1, caspase-4, and the necroptosis-inducing protein RIPK3. Briefly, Jurkat and primary human CD4+/CD8+ T cells expressing FKBP(F36V)-fused killing domains were treated with 10 nM rimiducid and cell death was measured by percent killing as described herein above.

[1] = tested on: primary human CD4+/CD8+ T cells; test: Kill switch percent killing in primary human T cells; assay type: cell-based; conditions: 10 nM rimiducid, range of transduction levels
Method: Pre-selected, cryopreserved primary human CD4 T cells from normal donors were obtained from Bloodworks (Seattle WA). Human T cells were cultured in OpTmizer medium (Thermo Fisher) supplemented with Immune Cell Serum Replacement (Thermo Fisher), 2 mM L-glutamine (Gibco), 2 mM Glutamax (Gibco), 200 IU/ml IL-2 (R&D systems), 120 IU/ml IL-7 (R&D systems), and 20 IU/ml IL-15 (R&D systems).
For lentiviral transduction, T cells were stimulated with a 1:100 dilution of T cell TransAct (Miltenyi) for 30 hours. Virus was then added to T cells for 18-24 hours. […]
Flow cytometry was performed on a Ze5 cytometer (Biorad). […] After staining, cells were washed once with Annexin V Binding Buffer, resuspended in AnneinV Binding Buffer and immediately analyzed.
as §1
as §2, with “We fused FKBP-F36V to a panel of killing domains that included caspase-9 D330A, caspase-9, caspase-1, caspase-4, and the necroptosis-inducing protein RIPK3.” left out

[2] = tested on: CD69 expression in CAR expressing Jurkat cells; test: Induction of CD69 expression in CAR expressing Jurkat cells co-cultured with Jeko1 cells (flow cytometry); assay type: cell-based; conditions: conventional single-chain ROR1-CAR Jurkat cells with Jeko1 cells; 500 nM danoprevir
Method: NS3a-based regulated CARs were evaluated using lentiviral transduction of T cells and flow cytometry analysis. The CARs evaluated are specific for the ROR1 antigen expressed on the target cell line Jeko1. The Jurkat and Jeko1 cell lines were obtained from American Type Culture Collection (Manassas, VA) and maintained in RPMI 1640 media with Glutamax (Gibco) containing 10% fetal calf serum (Gibco). For lentiviral transduction, Jurkat cells were incubated with lentivirus in complete media plus LentiBOOST at the manufacturers recommended concentration (Sirion Biotech). Eighteen hours after transfection, lentivirus and LentiBOOST were diluted by addition of 1 volume fresh media.
For flow analysis of induction of CD69 expression, Jurkat cells were mixed 1:1 with Jeko1 cells or Jeko1-ROR1-KO cells. Drug was added to a final concentration of 500 nM. Cultures were incubated with drug for 24 hours before flow analysis for surface markers.
Flow cytometry of CAR experiments was performed on a Ze5 cytometer (Biorad). […] Flow cytometry data was analyzed using FlowJo 10 (Tree Star).
The three NS3a-based regulated CARs described hereinabove with reference to FIG. 1B were evaluated in the Jurkat cell line. […] CD69 expression, a T cell activation marker, was detected by flow cytometry, gating on live CD3+/ROR1+ cells.

DNCR2: danoprevir/NS3 complex reader polypeptide (SSDEEEARELIERAKEAAERAQEAAERTGDPRVRELARELKRLAQEAAEEVKRDPSSSD)
affinity for the danoprevir/NS3a complex (danoprevir/NS3a complex): high affinity

RIPK3: FKBP-F36V fused to the necroptosis-inducing protein RIPK3
percent killing, FKBP(F36V)-fused killing domains (Jurkat cells): not able to induce cell death | percent killing, FKBP(F36V)-fused killing domains [1]: not able to induce cell death

B1: Conventional CAR: conventional, single-chain ROR1-CAR (protein)
chain: CPPCPMFWVLVVVGGVLACYSLLVTVAFIIFWVKRGRKKLLYIFKQPFMRPVQTTQEEDGCSCRFPEEEEGGCELRVKFSRSADAPAYQQGQNQLYNELNLGRREEYDVLDKRRGRDPEMGGKPRRKNPQEGLYNELQKDKMAEAYSEIGMKGERRRGKGHDGLYQGLSTATKDTYDALHMQALPPR
CD69 expression, regulation in response to danoprevir [2]: no significant regulation
